# Measurements reported in EP4722213A1, “NITROGEN-CONTAINING FUNCTIONAL GROUP-SUBSTITUTED PYRIDAZINOPYRIDONE DERIVATIVE AND USE THEREOF” (Sichuan Huiyu Pharmaceutical Co., Ltd., priority 2023, dated 2024).
# Structures can show the parent of a compound that is named as a salt.
# Target: T1, SOS1 (Homo sapiens, UniProt Q07889)
# T1 sequence (Q07889 1-1333): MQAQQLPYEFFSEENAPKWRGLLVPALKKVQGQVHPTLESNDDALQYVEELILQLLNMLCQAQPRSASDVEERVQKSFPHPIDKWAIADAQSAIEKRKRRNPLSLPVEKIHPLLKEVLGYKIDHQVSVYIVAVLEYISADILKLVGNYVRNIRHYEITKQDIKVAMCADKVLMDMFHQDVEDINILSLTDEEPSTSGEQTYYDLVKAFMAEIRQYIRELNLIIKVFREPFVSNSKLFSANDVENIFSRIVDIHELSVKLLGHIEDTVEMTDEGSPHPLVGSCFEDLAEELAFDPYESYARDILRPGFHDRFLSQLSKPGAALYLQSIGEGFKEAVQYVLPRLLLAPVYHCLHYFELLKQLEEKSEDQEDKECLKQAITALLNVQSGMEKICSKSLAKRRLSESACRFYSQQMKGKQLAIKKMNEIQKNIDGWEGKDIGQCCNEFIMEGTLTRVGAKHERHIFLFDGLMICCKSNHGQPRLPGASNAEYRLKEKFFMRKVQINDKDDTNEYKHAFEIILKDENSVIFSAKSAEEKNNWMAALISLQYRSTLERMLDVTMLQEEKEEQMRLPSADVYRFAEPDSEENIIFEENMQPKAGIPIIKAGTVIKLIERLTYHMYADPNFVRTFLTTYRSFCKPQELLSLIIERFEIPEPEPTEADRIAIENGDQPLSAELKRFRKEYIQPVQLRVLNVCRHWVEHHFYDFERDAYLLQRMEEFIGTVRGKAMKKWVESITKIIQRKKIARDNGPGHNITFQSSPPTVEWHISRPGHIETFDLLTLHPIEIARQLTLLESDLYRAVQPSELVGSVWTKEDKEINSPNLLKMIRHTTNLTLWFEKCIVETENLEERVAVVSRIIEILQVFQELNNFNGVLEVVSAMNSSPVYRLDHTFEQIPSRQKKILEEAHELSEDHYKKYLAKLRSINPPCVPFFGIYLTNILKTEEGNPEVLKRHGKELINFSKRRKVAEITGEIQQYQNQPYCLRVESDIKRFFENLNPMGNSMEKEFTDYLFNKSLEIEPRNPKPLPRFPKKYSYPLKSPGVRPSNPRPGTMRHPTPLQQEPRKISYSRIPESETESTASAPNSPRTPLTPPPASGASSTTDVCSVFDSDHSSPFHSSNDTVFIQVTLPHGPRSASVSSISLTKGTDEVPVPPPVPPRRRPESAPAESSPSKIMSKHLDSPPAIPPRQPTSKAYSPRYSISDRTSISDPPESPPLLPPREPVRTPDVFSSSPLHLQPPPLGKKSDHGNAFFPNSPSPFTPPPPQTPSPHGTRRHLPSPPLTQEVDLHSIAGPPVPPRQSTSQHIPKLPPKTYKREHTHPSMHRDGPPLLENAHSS
# Assay: biochemical
row,Structure (SMILES),IC50
1,"CCN1CCN(c2nnc(N[C@H](C)c3cccc(C#N)c3C)c3cn(C)c(=O)cc23)CC1 [Example 145, (R)-3-(1-((1-(4-ethylpiperazin-1-yl)-6-methyl-7-oxo-6,7-dihydropyrido[3,4-d]pyridazin-4-yl)amino)ethyl)-2-methylbenzonitrile formate]",7.8 nM
2,"Cc1c(C#N)cccc1[C@@H](C)Nc1nnc(N2CCS(=O)(=O)CC2)c2cc(=O)n(C3CC3)cc12 [Example 44, (R)-3-(1-((6-cyclopropyl-1-(1,1-dioxidothiomorpholino)-7-oxo-6,7-dihydropyrido[3,4-d]pyridazin-4-yl)amino)ethyl)-2-methylbenzonitrile]",44.2 nM
3,"C[C@@H](Nc1nnc(N2CCN(CC3CC3)CC2)c2cc(=O)n(N3CCN(C)CC3)cc12)c1cccc(C(F)F)c1F [Example 154, (R)-1-(4-(cyclopropylmethyl)piperazin-1-yl)-4-((1-(3-(difluoromethyl)-2-fluorophenyl)ethyl)amino)-6-(4-methylpiperazin-1-yl)pyrido[3,4-d]pyridazin-7(6H)-one]",5.4 nM
4,"C[C@@H](Nc1nnc(N2CCS(=O)(=O)CC2)c2cc(=O)n(C3(C)CC3)cc12)c1cccc(C(F)F)c1F [Example 27, (R)-4-((1-(3-(difluoromethyl)-2-fluorophenyl)ethyl)amino)-1-(1,1-dioxidothiomorpholino)-6-(1-methylcyclopropyl) pyrido[3,4-d]pyridazin-7(6H)-one]",16.5 nM
5,"CCN1CCN(c2nnc(N[C@H](C)c3cccc(C#N)c3C)c3cn(C4CC4)c(=O)cc23)CC1 [Example 224, (R)-3-(1-((6-cyclopropyl-1-(4-ethylpiperazin-1-yl)-7-oxo-6,7-dihydropyrido[3,4-d]pyridazin-4-yl)amino)ethyl)-2-methylbenzonitrile]",8.4 nM
6,"C[C@@H](Nc1nnc(N2CCC(CO)C2)c2cc(=O)n(C3(C)CC3)cc12)c1cccc(C(F)F)c1F (stereo partly drawn) [Example 128, 4-(((R)-1-(3-(difluoromethyl)-2-fluorophenyl)ethyl)amino)-1-(3-(hydroxymethyl)pyrrolidin-1-yl)-6-(1-methylcyclopropyl) pyrido[3,4-d]pyridazin-7(6H)-one]",4.2 nM
7,"Cc1c([C@@H](C)Nc2nnc(N3CCS(=O)(=O)CC3)c3cc(=O)n(C4(C)CC4)cc23)cccc1C(F)(F)F [Example 68, (R)-1-(1,1-dioxidothiomorpholino)-4-((1-(2-methyl-3-(trifluoromethyl)phenyl)ethyl)amino)-6-(1-methylcyclopropyl) pyrido[3,4-d]pyridazin-7(6H)-one]",18.9 nM
8,"C[C@@H](Nc1nnc(N2CCC3(C2)CS(=O)(=O)C3)c2cc(=O)n(C3(C)CC3)cc12)c1cccc(C(F)F)c1F [Example 197, (R)-4-((1-(3-(difluoromethyl)-2-fluorophenyl)ethyl)amino)-1-(2,2-dioxido-2-thia-6-azaspiro[3.4]octan-6-yl)-6-(1-methylcyclopropyl) pyrido[3,4-d]pyridazin-7(6H)-one]",5 nM
9,"C[C@@H](Nc1nnc(N2CCOCC2)c2cc(=O)n(C3(C)CC3)cc12)c1cccc(C(F)F)c1F [Example 7, (R)-4-((1-(3-(difluoromethyl)-2-fluorophenyl)ethyl)amino)-6-(1-methylcyclopropyl)-1-morpholinopyrido[3 ,4-d]pyridazin-7(6H)-one]",17.7 nM
10,"Cc1c(C#N)cccc1[C@@H](C)Nc1nnc(N2CCC2)c2cc(=O)n(C3(C)CC3)cc12 [Example 70, (R)-3-(1-((1-(azetidin-1-yl)-6-(1-methylcyclopropyl)-7-oxo-6,7-dihydropyrido[3,4-d]pyridazin-4-yl)amino)ethyl)-2-methylbenzonitrile]",6.7 nM
11,"C[C@@H](Nc1nnc(N2CCS(=O)(=O)CC2)c2cc(=O)n(C3CC3)cc12)c1cccc(C(F)F)c1F [Example 24, (R)-6-cyclopropyl-4-((1-(3-(difluoromethyl)-2-fluorophenyl)ethyl)amino)-1-(1,1-dioxidothiomorpholino)pyrido[3,4-d]pyridazin-7(6H)-one]",12.7 nM
12,"C[C@@H](Nc1nnc(N2CCC3(CC3)C2)c2cc(=O)n(C3(C)CC3)cc12)c1cccc(C(F)F)c1F [Example 187, (R)-4-((1-(3-(difluoromethyl)-2-fluorophenyl)ethyl)amino)-6-(1-methylcyclopropyl)-1-(5-azaspiro[2.4]heptan-5-yl)pyrido[3,4-d]pyridazin-7(6H)-one]",4.8 nM
13,"Cc1cc(N)cc([C@@H](C)Nc2nnc(N3CCN(C4CC4)CC3)c3cc(=O)n(C4(C)CC4)cc23)c1F [Example 162, (R)-4-((1-(5-amino-2-fluoro-3-methylphenyl)ethyl)amino)-1-(4-cyclopropylpiperazin-1-yl)-6-(1-methylcyclopropyl) pyrido[3,4-d]pyridazin-7(6H)-one]",6.7 nM
14,"C[C@@H](Nc1nnc(N2CCC3(CCOCC3)C2)c2cc(=O)n(C3(C)CC3)cc12)c1cccc(C(F)F)c1F [Example 200, (R)-4-((1-(3-(difluoromethyl)-2-fluorophenyl)ethyl)amino)-6-(1-methylcyclopropyl)-1-(8-oxa-2-azaspiro[4.5]decan-2-yl)pyrido[3,4-d]pyridazin-7(6H)-one]",4.2 nM
15,"C[C@@H](Nc1nnc(N2CCN(C3CCCC3)CC2)c2cc(=O)n(C3(C)CC3)cc12)c1cccc(C(F)(F)F)c1F [Example 171, (R)-4-((1-(2-fluoro-3-(trifluoromethyl)phenyl)ethyl)amino)-1-(4-cyclopentylpiperazin-1-yl)-6-(1-methylcyclopropyl) pyrido[3,4-d]pyridazin-7(6H)-one]",5 nM
16,"C[C@@H](Nc1nnc(N2CC3CC2CO3)c2cc(=O)n(C3(C)CC3)cc12)c1cccc(C(F)(F)F)c1F (stereo partly drawn) [Example 175, 1-(2-oxa-5-azabicyclo[2.2.1]heptan-5-yl)-4-(((R)-1-(2-fluoro-3-(trifluoromethyl)phenyl)ethyl)amino)-6-(1-methylcyclopropyl) pyrido[3,4-d]pyridazin-7(6H)-one]",13 nM
17,"Cc1c(C#N)cccc1[C@@H](C)Nc1nnc(N2CC(F)(F)C2)c2cc(=O)n(C3(C)CC3)cc12 [Example 48, (R)-3-(1-((1-(3,3-difluoroazetidin-1-yl)-6-(1-methylcyclopropyl)-7-oxo-6,7-dihydropyrido[3,4-d]pyridazin-4-yl)amino)ethyl)-2-methylbenzonitrile]",46.5 nM
18,"C[C@@H]1CCCN1c1nnc(N[C@H](C)c2cccc(C(F)F)c2F)c2cn(C3(C)CC3)c(=O)cc12 [Example 28, 4-(((R)-1-(3-(difluoromethyl)-2-fluorophenyl)ethyl)amino)-6-(1-methylcyclopropyl)-1-((R)-2-methylpyrrolidin-1-yl)pyrido[3,4-d]pyridazin-7(6H)-one]",5.7 nM
19,"CCN(CC)c1nnc(N[C@H](C)c2cccc(C(F)(F)F)c2C)c2cn(C3CC3)c(=O)cc12 [Example 53, (R)-6-cyclopropyl-1-(diethylamino)-4-((1-(2-methyl-3-(trifluoromethyl)phenyl)ethyl)amino)pyr ido[3,4-d]pyridazin-7(6H)-one]",24.7 nM
20,"C[C@@H](Nc1nnc(N2CC3CC2CO3)c2cc(=O)n(C3(C)CC3)cc12)c1cccc(C(F)F)c1F (stereo partly drawn) [Example 201, 1-(2-oxa-5-azabicyclo[2.2.1]heptan-5-yl)-4-(((R)-1-(3-(difluoromethyl)-2-fluorophenyl)ethyl)amino)-6-(1-methylcyclopropyl) pyrido[3,4-d]pyridazin-7(6H)-one]",5.3 nM
